The test system of one assay is A549/OPNluc cells. In words: WST assay for cell growth / cell viability. Format: cell-based, human. Particulars: 48±4 hours, WST-1, read-out: IC50 (concentration for 50% inhibition of cell growth). An excerpt: (§1) A reporter vector pOPN1-luc obtained by the insertion of a human OPN promoter sequence (−765 to 23) into the multiple cloning site of pGL-3 basic vector (Promega) expresses luciferase when transfected into animal cells. The pOPN1-luc was transfected into a human non-small cell lung cancer-derived cell line A549 together with pPUR (Clontech) that expresses a puromycin resistance gene (puromycin-N-acetyl-transferase gene), and then cells expressing luciferase which could grow a puromycin-supplemented medium were selected. The selected cells were named “A549/OPNluc cells” and used for observation of luciferase expression inhibitory effect under control of OPN promoter, as described below.
(§2) A test compound was added to a culture containing A549/OPNluc cells to observe its influence on the amount of luciferase expressed in the cells. Here, it can be considered that when the test compound has a cell cytotoxity or cell growth inhibitory effect, the total expression level of luciferase is reduced due to a reduction in the number of living cells that depends on the concentration of the test compound, and therefore the luciferase expression inhibitory effect of the test compound under control of OPN promoter cannot be properly evaluated. For this reason, WST assay for quantification of cell proliferation ability or cell viability by colorimetric measurement was firstly performed to determine IC50 (concentration for 50% inhibition of cell growth) of the test compound for cell growth. Then, luciferase activity measurement was performed to determine EC50 (concentration for 50% inhibition of luciferase expression) of the test compound for luciferase expression under control of OPN promoter.
A549/OPNluc cells were suspended in DMEM medium containing 10% fetal calf serum (FCS) and 1% penicillin/streptomycin (P/S) at 3×10^4 cells/mL to obtain a cell suspension, and then the cell suspension was dispensed into each well of a 96-well plate in an amount of 100 μL. In order to perform the assay in triplicate, wells were prepared for a control group, and 3 wells were prepared for each test compound-treated group at each concentration. After the dispensation, the 96-well plate was incubated in a CO2 incubator (at 37° C. and 5% CO2) for 24±4 hours.
The present compound was dissolved in dimethylsulfoxide (DMSO) to obtain a 50 mmol/L solution, and the compound solution was stored at −80° C. The compound solution was diluted with DMSO in 2-fold dilution series (usually, in the range of 0.31 mmol/L to 20 mmol/L) to prepare test compound solutions whose concentration varied by two fold for WST assay.
Each solution of only DMSO (control) and the diluted test compound (sample) was dispensed into each well containing the cell suspension in an amount of 0.5 μL (200-fold dilution). The solution in each well was mixed with a vortex mixer, and then the 96-well plate was incubated in a CO2 incubator (at 37° C. and 5% CO2) for 48±4 hours. Then, Premix WST-1 Reagent (TAKARA BIO INC.) was added in an amount of 10 μL to each well. The solution in each well was mixed with a vortex mixer, and then the 96-well plate was incubated at 37° C. and 5% CO2. After 60 minutes or 120 minutes, the absorbance values (450 nm) were measured with a microplate reader (Bio-Rad; Benchmark or Thermo Scientific; Varioskan Flash).
The absorbance values of the control wells and the sample wells at each concentration were input into an Excel file to determine the percentages of absorbance values of the sample wells at each concentration with to the average absorbance value of the control wells. From the determined values, a fitted curve was determined by the method of least squares to calculate IC50.

The test system of assay [1] is human OPN promoter (pOPN1-luc) in A549/OPNluc cells. Kind of assay: Luciferase assay: luciferase expression under control of OPN promoter. Type of assay: cell-based.
Text: as §1, §2
The same steps as in the above-mentioned WST assay were performed in which each solution of only DMSO (control) or the diluted test compound (sample) was added in an amount of 0.5 μL to each well containing the cell suspension to achieve 200-fold dilution, and the solution in each well was mixed with a vortex mixer, and the 96-well plate was incubated in a CO2 incubator (at 37° C. and 5% CO2) for 48±4 hours.
Luciferase Assay Substrate (hereinafter referred to as “LAS”) supplied in Luciferase Assay Systems (Promega: Cat #E1500) was dissolved in Luciferase Assay Buffer (LAB) to prepare a luciferase reagent. 5×Cell Culture Lysis Reagent (hereinafter referred to as “CCLR”) was diluted by 5 times with water to prepare 1×CCLR.
After the incubation for 48±4 hours, the medium in each well was completely removed, and 1×CCLR was dispensed into each well in an amount of 50 μL. The 96-well plate was allowed to stand at room temperature for 30 minutes, and then 1×CCLR in each well was used as an assay sample. The luciferase reagent (100 μL) was placed in a tube for chemiluminescence measurement, and the assay sample (20 μL) was added to the tube and mixed with the luciferase reagent to measure chemiluminescence (Relative Luminescence Intensity: RLU) using TB 20/20 (Promega) or GloMax 20/20 (Promega).
The RLU values of the control wells and the sample wells at each concentration were input into an Excel file, and the percentages of RLU values of the sample wells at each concentration to the average RLU value of the control wells were determined. From these values, a fitted curve was determined by the method of least squares to calculate EC50. Also, the percentages of RLU values of the sample wells at each concentration to the average RLU value of the control wells were divided by the percentages of absorbance values of the compounds in WST assay at the same concentrations as those of this assay (to the control), and a fitted curve was determined from the calculated values by the method of least squares to calculate corrected EC50.

Where [2] appears, read: Homo sapiens, A549, A549/OPNluc cells.
Setting [3] is: Homo sapiens, A549, A549/OPNluc cells, 48±4 hours, read-out: EC50 (concentration for 50% inhibition of luciferase expression).
[4] abbreviates: Homo sapiens, A549, EC50 corrected for decrease in viable cells (RLU % divided by WST %), read-out: corrected EC50.

Each structure is given as a SMILES string. Read-outs that look alike come from different tables or passages of the source. Bounds are passed on as bounds.

In US11040937B2, “Amide derivative” (TOHOKU UNIVERSITY, priority 2014, dated 2021) one finds IC50 and EC50 data, which are given here for 13 molecules.

Consider `O=C(Nc1cccc(Oc2ccc(Cl)cc2)c1)C1CCCN(C(=O)c2ccc(O)cc2)C1` (stereo not drawn) [Compound 33, N-(3-(4-Chlorophenoxy)phenyl)-1-(4-hydroxyphenylcarbonyl)piperidine-3-carboxamide], for which the IC50 with A549/OPNluc cells (setting [2]) is 25.9 µM. Moreover, the EC50 in assay [1] (setting [3]) is 8.5 µM; in assay [1] (setting [4]), 11.1 µM.
Take `COc1ccc(Oc2ccccc2NC(=O)CNC(=O)c2ccc(O)cc2)cc1` [Compound 28, N-(2-(2-(4-Methoxyphenoxy)phenylamino)-2-oxoethyl)-4-hydroxybenzamide]: the IC50 in the assay on A549/OPNluc cells (setting [2]) was greater than 100 µM. Also, the EC50 came to 41.5 µM in assay [1] (setting [3]) and 53.7 µM in assay [1] (setting [4]).
Regarding `O=C(CCC(=O)Nc1cccc(Oc2ccc(Cl)cc2)c1)Nc1ccc(O)cc1` [Compound 23, N-(4-Hydroxyphenyl)-4-(3-(4-chlorophenoxy)phenylamino)-4-oxobutanamide], the IC50 is 87.3 µM in the assay on A549/OPNluc cells (A549/OPNluc cells) and greater than 100 µM with A549/OPNluc cells (setting [2]). In addition, the EC50 amounted to 40.6 µM in assay [1] (A549/OPNluc cells, 48±4 hours, read-out: EC50 (concentration for 50% inhibition of luciferase expression)); 50.9 µM in assay [1] (EC50 corrected for decrease in viable cells (RLU % divided by WST %), read-out: corrected EC50); 71.5 µM in assay [1] (setting [3]); 82.8 µM in assay [1] (setting [4]).
Consider `Nc1c(Oc2ccc(C(F)(F)F)cc2)cccc1C(=O)CCNC(=O)c1ccc(O)cc1` [Compound 15, N-(3-(2-Amino-3-(4-(trifluoromethyl)phenoxy)phenyl)-3-oxopropyl)-4-hydroxybenzamide], for which the IC50 in the assay on A549/OPNluc cells (setting [2]) was 35.4 µM. Also, the results for the EC50 in assay [1] (setting [3]) and in assay [1] (setting [4]) were 5.6 µM and 5.3 µM, respectively.
In the case of `COc1ccc(Oc2cccc(C(=O)NCCNC(=O)c3ccc(O)cc3)c2)cc1` [Compound 21, N-(2-(3-(4-Methoxyphenoxy)benzoylamino)ethyl)-4-hydroxybenzamide], in the assay with A549/OPNluc cells (setting [2]), the IC50 turned out to be 95.9 µM. For the same molecule, the EC50 in assay [1] (setting [3]) turned out to be 16.1 µM; in assay [1] (setting [4]) it was 17 µM.
For the molecule `Nc1c(O)cccc1C(=O)CCNC(=O)c1ccc(O)cc1` [Compound 13, N-(3-(2-Amine-3-hydroxyphenyl)-3-oxopropyl)-4-hydroxybenzamide], the IC50 in the assay on A549/OPNluc cells (setting [2]) is greater than 200 µM. Further, the EC50 in assay [1] (setting [3]) is greater than 200 µM.
For `Cc1ccc(Oc2cccc(C(=O)CCNC(=O)c3ccc(O)cc3)c2N)cc1` [Compound 14, N-(3-(2-Amino-3-(4-methylphenoxy)phenyl)-3-oxopropyl)-4-hydroxybenzamide], the IC50 in the assay on A549/OPNluc cells (setting [2]) was 61.1 µM. Moreover, the EC50 in assay [1] (setting [3]) is 5.6 µM; in assay [1] (setting [4]), 5 µM.
With `COc1cccc(C(=O)CCNC(=O)c2ccc(O)cc2)c1N` [Compound 12, N-(3-(2-Amino-3-methoxyphenyl)-3-oxopropyl)-4-hydroxybenzamide], in the assay on A549/OPNluc cells (setting [2]), the IC50 was greater than 200 µM. Further, the EC50 in assay [1] (setting [3]) was greater than 200 µM.
Regarding `CC(=O)NCCC(=O)c1cccc(Oc2ccc(O)cc2)c1N` [Compound 8, N-(3-(2-Amino-3-(4-hydroxyphenoxy)phenyl)-3-oxopropyl)-acetamide], the IC50 in the assay on A549/OPNluc cells (setting [2]) is greater than 100 µM. Further, the EC50 in assay [1] (setting [3]) is greater than 100 µM.
Consider `COc1ccc(Oc2cccc(C(=O)CCNC(=O)c3ccc(OC)cc3)c2N)cc1` [Compound 5, N-(3-(2-Amino-3-(4-methoxyphenoxy)phenyl)-3-oxopropyl)-4-methoxybenzamide], for which, in the assay with A549/OPNluc cells (setting [2]), the IC50 came out at 64.9 µM. Moreover, the EC50 in assay [1] (setting [3]) amounted to 19.5 µM; in assay [1] (setting [4]) it was 22.6 µM.
On to `O=C(CCNC(=O)c1ccncc1)Nc1cccc(Oc2ccc(Cl)cc2)c1` [Compound 37, N-(3-(3-(4-Chlorophenoxy)phenylamino)-3-oxopropyl)pyridine-4-carboxamide], for which the IC50 in the assay with A549/OPNluc cells (setting [2]) amounted to 60.1 µM. The EC50 was determined as 15.6 µM in assay [1] (setting [3]) and 20.9 µM in assay [1] (setting [4]).
The matching figures for `COc1ccc(Oc2ccccc2C(=O)NCCNC(=O)c2ccc(O)cc2)cc1` [Compound 22, N-(2-(2-(4-Methoxyphenoxy)benzoylamino)ethyl)-4-hydroxybenzamide]: greater than 100 µM, 42.2 µM and 50.4 µM.
As for `COc1ccc(Oc2ccc(NC(=O)CCNC(=O)c3ccc(O)cc3)cc2)cc1` [Compound 30, N-(3-(4-(4-methoxyphenoxy)phenylamino)-3-oxopropyl)-4-hydroxybenzamide], the IC50 with A549/OPNluc cells (setting [2]) amounted to 52.3 µM. The values for the EC50 in assay [1] (setting [3]) and in assay [1] (setting [4]) were 7 µM and 12.6 µM, respectively.
